{"source": "patent US5744023A", "about": "“Method for separation and recovery of organogermanium compound” (Asai Germanium Research Institute Co., Ltd., priority 1994, dated 1998)", "key": {"[1]": {"experiment": "acute oral toxicity (LD50) in mice", "settings": "mouse, in vivo, orally administered", "source_text": "(§1) Since these organogermanium compounds are an expensive and valuable resource, it is desirable that they can be separated and recovered from respective reaction mixtures for reutilization. However, both the saccharides and the organogermanium compounds are organic compounds of fairly high molecular weights and no method for effective separation of the two kinds of the compounds is known."}, "[2]": {"experiment": "acute oral toxicity (LD50) in rats", "settings": "rat, in vivo, orally administered", "source_text": "as §1"}}, "data": [{"smiles": "O=C(O)C[CH2][Ge](=[O])[O][Ge](=[O])[CH2]CC(=O)O", "note": "[Compound 1, 2-carboxyethylgermanium sesquioxide]", "values": [{"measurement": "LD50", "setting": "[1]", "result": "≥ 6000", "unit": "mg/kg"}, {"measurement": "LD50", "setting": "[2]", "result": "≥ 10000", "unit": "mg/kg"}]}]}
